# From patent US11224627B2, “Method for culturing cells of Acrochaetium moniliforme red algae, method for obtaining an extract of the biomass thereof, and use of same in cosmetics” (SOCIETE D'EXPLOITATION DE PRODUITS POUR LES INDUSTRIES …, priority 2016, dated 2022)
# Marks after values point to notes of the source that are not given here.
# Columns and labels:
# [1] = system: Human fibroblasts of the dermal follicular papilla; experiment: Viability measured using WST-8 reagent; assay type: cell-based; settings: 2 μM
# 5-α-reductase enzyme = experiment: Production of dihydrotestosterone (DHT) from testosterone in a cellular model, revealing 5-α-reductase activity; assay type: cell-based, human; settings: 2 μM
# Description: This model is a cellular model, that is more robust than models on purified enzyme.
# Human fibroblasts of the dermal follicular papilla (person) were seeded into collagen-coated culture plates in the presence of a specific growth medium. After three days, they were pretreated for 24 hours with the positive reference [Finasteride (F) at 2 μM and 1 μM] and each of the algal extracts to be tested (Table 2). The fibroblasts were then stimulated with testosterone at 0.5 μM before undergoing a post-treatment for 24 hours. Each test was carried out in sextuplicate.
# The viability was measured using a WST-8 reagent and the conversion of the testosterone was then evaluated by measuring the intracellular concentration of (DHT). The viability was expressed relative to that of the control without testosterone (control T0). The amount of (DHT) was standardized relative to the viability results and then related to the control condition with testosterone (0.5 μM) control (T1) in order to calculate a percentage effect, and also related to the control conditions without testosterone in order to calculate a percentage protection.
structure (smiles),measurement,setting,value
"CC(C)(C)NC(=O)[C@H]1CC[C@H]2[C@@H]3CC[C@H]4NC(=O)C=C[C@]4(C)[C@H]3CC[C@]12C [F, Finasteride]",WST-8 OD (AU),"[1]; fibroblasts stimulated with testosterone 0.5 μM, 24 h pre- and 24 h post-treatment",2.19 +/− 0.27^(a) AU
same,WST-8 Viability,[1]; relative to control without testosterone (T0),93%^(a)
same,DHT Standardized concentration (pg/ml/AU),5-α-reductase enzyme; DHT standardized relative to viability (WST-8 OD),5.68 +/− 0.91^(a) pg/ml/AU
same,DHT Concentration (pg/ml),"5-α-reductase enzyme; intracellular DHT, testosterone 0.5 μM",12.38 +/− 2.35^(a) pg/ml
same,DHT Restoration,"5-α-reductase enzyme; related to control without testosterone (T0 = 100%, T1 = 0%)",46%*
same,DHT Effect,5-α-reductase enzyme; relative to control with testosterone 0.5 μM (T1),−28%*
